From patent US9051313B2, “Apoptosis signal-regulating kinase inhibitors” (Gilead Sciences, Inc., priority 2012, dated 2015)

Legend:
[1] = target: recombinant human ASK1 kinase (Homo sapiens (Human), UniProt Q99683); test: TR-FRET ASK1 kinase assay (HTRF KinEASE-STK); type: biochemical
Excerpt: Dephosphorylated recombinant human ASK1 kinase was from Gilead Sciences. […] ATP (catalogue # 7724) was from Affymetrix (Santa Clara, Calif.) and test compounds were from Gilead Sciences. HTRF KinEASE™-STK S3 kit was obtained from Cisbio (Bedford, Mass.). All other reagents were of the highest grade commercially available. The assay measures the phosphorylation level of a biotinylated peptide substrate by the ASK1 kinase using HTRF detection (6.1). This is a competitive, time-resolved fluorescence resonance energy transfer (TR-FRET) immunoassay, based on HTRF® KinEASE™-STK manual from Cisbio (6.1). […] Peptide antibody labeled with 1× Eu^3+ Cryptate buffer containing 10 mM EDTA and 125 nM Streptavidin XL665 are added to stop the reaction and phosphorylated peptide substrate is detected using Envision 2103 Multilabeled reader from PerkinElmer. The fluorescence is measured at 615 nm (Cryptate) and 665 nm (XL665) and a ratio of 665 nm/615 nm is calculated for each well. The resulting TR-FRET level (a ratio of 665 nm/615 nm) is proportional to the phosphorylation level. Under these assay conditions, the degree of phosphorylation of peptide substrate was linear with time and concentration for the enzyme. The assay system yielded consistent results with regard to Km and specific activities for the enzyme. For inhibition experiments (IC50 values), activities were performed with constant concentrations of ATP, peptide and several fixed concentrations of inhibitors. […] All enzyme activity data are reported as an average of quadruplicate determination. […] Enzyme activity is expressed as the amount of Phosphate incorporated into substrate peptide from ATP. Range is the maximum y range (no inhibitor, DMSO control) and s is a slope factor (6.2). Results

[2] = target: ASK1 (kinase active, 631-1381 of rat ASK1 cDNA) in 293/AP1-Luc cells (Rattus norvegicus, UniProt A0A8I6AEL0); test: ASK1 293 cell-based assay (Cellular EC50), AP-1:luciferase reporter; conditions: 293/AP1-Luc cells infected with adenovirus expressing ASK1, 24 hours
Sequence of ASK1 (kinase active, 631-1381 of rat ASK1 cDNA) in 293/AP1-Luc cells (A0A8I6AEL0 1-1381): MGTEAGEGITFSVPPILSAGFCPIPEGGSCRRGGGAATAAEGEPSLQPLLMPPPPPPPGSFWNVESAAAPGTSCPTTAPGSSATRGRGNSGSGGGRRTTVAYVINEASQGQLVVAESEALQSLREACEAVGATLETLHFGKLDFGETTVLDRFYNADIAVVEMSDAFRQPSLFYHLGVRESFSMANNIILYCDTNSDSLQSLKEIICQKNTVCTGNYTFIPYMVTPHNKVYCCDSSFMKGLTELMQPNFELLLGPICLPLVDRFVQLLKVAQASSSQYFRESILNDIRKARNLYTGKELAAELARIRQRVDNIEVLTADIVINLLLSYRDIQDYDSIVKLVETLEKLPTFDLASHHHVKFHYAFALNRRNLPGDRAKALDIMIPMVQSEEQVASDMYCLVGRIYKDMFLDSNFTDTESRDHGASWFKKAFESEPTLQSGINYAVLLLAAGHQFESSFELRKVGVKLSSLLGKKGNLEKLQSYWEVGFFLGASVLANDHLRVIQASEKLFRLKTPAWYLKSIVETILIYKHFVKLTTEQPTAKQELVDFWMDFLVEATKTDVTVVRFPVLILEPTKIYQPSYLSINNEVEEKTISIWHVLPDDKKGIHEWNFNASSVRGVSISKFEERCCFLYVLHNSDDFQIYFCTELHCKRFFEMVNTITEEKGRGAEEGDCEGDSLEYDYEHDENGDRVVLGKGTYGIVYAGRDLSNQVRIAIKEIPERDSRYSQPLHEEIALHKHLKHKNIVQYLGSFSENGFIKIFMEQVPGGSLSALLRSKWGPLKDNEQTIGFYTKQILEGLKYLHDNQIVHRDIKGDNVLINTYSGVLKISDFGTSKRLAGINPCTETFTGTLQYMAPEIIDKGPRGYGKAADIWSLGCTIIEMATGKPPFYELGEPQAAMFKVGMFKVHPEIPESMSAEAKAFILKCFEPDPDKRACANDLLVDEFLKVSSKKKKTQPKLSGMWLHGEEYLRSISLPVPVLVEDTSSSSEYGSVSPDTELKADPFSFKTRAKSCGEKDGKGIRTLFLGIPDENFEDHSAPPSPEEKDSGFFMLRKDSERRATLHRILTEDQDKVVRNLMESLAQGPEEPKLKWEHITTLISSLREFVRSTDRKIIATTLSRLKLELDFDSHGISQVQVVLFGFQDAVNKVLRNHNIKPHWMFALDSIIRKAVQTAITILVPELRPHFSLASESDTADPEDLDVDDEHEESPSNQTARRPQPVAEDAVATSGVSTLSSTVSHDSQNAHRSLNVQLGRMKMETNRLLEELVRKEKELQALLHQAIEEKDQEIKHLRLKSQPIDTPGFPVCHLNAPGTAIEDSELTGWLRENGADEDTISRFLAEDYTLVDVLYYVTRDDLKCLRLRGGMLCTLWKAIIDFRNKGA
Procedure: ASK1 (Apoptosis Signal-Regulating Kinase 1) 293 cell-based assay (Cellular EC50)
The cellular potency of compounds was assayed in cells stably expressing an AP-1: luciferase reporter construct (293/AP1-Luc cells—Panomics Inc., 6519 Dumbarton Circle, Fremont, Calif.). Cells were infected with an adenovirus expressing kinase active ASK1 (631-1381 of rat ASK1 cDNA), which will activate the AP-1 transcription factor and increase the expression of luciferase. Inhibitors of ASK1 will decrease the enzyme activity of ASK1 and therefore decrease the activity of AP-1 transcription factor and the expression of luciferase.
2. Reference Materials • 1. Panomics 293/AP1-Luc stable cell-line product insert. • 2. Promega Steady-Glo Luciferase Assay System product insert. 3. Media Required 3. Complete Growth Medium, “CGM” • a. DMEM (MediaTech) • b. 10% FBS • c. 1% PSG • d. 100 ug/mL HygromycinB 4. Assay Medium, “AM” • a. DMEM (Invitrogen) • b. 25 mM HEPES • c. 1 mM Sodium Pyruvate • d. 1% PSG 4. Methods Maintenance: • 1. 293/AP1-Luc Maintain 293/Acells per vendor's instructions; harvest cells at ˜80% confluence in T150 flasks as follows: • a. Aspirate media, wash gently with ˜12 mL sterile D-PBS, aspirate. • b. Add 5 mL Trypsin-EDTA, tilt gently to coat flask, and incubate ˜5 min. at 37° C. • c. […] Aspirate media from cell pellet, add 20 to 30 mL CGM, resuspend pellet by pipeting 6×, pass through cell strainer to disperse clumps (if necessary), and count cells with hemocytometer. Assay Day 1: 2. Harvest cells as above, except resuspend cell pellet. Count cells and dilute to 1.5×10^5 cells per mL; add adenovirus such that there are 5 infectious forming units per cell. 3. Prime (20 to 30 mL) and plate cells in Greiner poly-D-Lysine coated 384-well plates at 1.2×10^4 cells per well using BioTek uFill (80 uL per well). 4. Immediately dose plates with 0.4 uL of compound dose series (in 100% DMSO) incubate 24 hours in humidified incubator (37° C., 5% CO2). Assay Day 2: 5. Process plates (per manufacturer's instructions) as follows: • a. Set plates in laminar flow hood & uncover for 30 minutes at room temperature to cool. • b. Remove 60 uL of AM from assay wells • c. Add 20 uL per well Steady-Glo Firefly substrate, let sit for 10-20 minutes at room temperature • d. Cover bottom of assay plates with white backing tape. • e. Acquire data on a […] plate reader

[3] = Compounds 6-17, same competitive TR-FRET immunoassay
[4] = TR-FRET, 100 μM ATP, 4 nM ASK1 kinase, average of quadruplicate

Sequence of recombinant human ASK1 kinase (Q99683 whole entry): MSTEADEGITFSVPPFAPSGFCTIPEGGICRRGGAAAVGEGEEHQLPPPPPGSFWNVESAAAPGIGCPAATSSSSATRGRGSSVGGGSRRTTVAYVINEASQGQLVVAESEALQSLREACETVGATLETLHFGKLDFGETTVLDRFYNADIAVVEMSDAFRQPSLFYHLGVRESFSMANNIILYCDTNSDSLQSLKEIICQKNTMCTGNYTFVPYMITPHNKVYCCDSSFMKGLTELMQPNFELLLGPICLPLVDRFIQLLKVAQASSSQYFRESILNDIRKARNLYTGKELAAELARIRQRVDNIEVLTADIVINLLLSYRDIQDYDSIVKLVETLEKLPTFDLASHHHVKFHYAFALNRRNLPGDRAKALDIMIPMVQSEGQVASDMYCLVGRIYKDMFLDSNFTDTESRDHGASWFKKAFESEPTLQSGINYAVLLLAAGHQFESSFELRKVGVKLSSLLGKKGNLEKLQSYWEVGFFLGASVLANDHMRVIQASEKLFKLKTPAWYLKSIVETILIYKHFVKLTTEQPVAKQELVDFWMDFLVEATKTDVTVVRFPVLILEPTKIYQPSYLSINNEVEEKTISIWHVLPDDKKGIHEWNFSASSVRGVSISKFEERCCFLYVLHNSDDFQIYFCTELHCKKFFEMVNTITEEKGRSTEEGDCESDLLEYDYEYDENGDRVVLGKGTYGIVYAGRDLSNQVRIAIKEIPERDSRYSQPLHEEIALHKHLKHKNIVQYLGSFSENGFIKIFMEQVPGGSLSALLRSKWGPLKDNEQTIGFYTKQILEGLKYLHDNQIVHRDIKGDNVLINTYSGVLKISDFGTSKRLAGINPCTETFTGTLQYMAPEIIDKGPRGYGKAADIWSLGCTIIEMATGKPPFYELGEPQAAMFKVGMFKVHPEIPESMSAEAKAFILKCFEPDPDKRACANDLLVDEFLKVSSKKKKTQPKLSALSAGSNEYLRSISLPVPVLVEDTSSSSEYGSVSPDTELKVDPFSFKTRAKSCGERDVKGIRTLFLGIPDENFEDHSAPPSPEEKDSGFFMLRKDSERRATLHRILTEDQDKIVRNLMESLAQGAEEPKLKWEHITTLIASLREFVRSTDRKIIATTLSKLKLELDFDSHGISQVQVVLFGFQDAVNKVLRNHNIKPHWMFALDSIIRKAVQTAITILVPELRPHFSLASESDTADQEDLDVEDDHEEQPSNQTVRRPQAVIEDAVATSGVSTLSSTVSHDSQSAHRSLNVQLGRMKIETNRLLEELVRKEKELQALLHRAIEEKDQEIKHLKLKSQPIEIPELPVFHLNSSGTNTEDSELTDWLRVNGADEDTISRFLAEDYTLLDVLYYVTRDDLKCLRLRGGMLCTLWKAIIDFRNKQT

SMILES | IC50 [1, 3] [nM] | IC50 [1, 4] [nM] | EC50 [2] [nM]
C[C@H](n1cnnc1-c1nc(NC(=O)c2cc(-n3cnc(C4CC4)c3)c(N3CCCCC3)cn2)cs1)C(F)(F)F [Example 13, (S)-4-(4-cyclopropyl-1H-imidazol-1-yl)-5-(piperidin-1-yl)-N-(2-(4-(1,1,1-trifluoropropan-2-yl)-4H-1,2,4-triazol-3-yl)thiazol-4-yl)picolinamide] | 0.7 | – | –
CC1(O)CN(c2cnc(C(=O)Nc3csc(-c4nncn4C4CC4)n3)cc2-n2cnc(C3CC3)c2)C1 [Example 2, 4-(4-cyclopropyl-1H-imidazol-1-yl)-N-(2-(4-cyclopropyl-4H-1,2,4-triazol-3-yl)thiazol-4-yl)-5-(3-hydroxy-3-methylazetidin-1-yl)picolinamide] | – | 1.58 | 11.2
C[C@H](n1cnnc1-c1nc(NC(=O)c2cc(-n3cnc(C4CC4)c3)c(N3CCC3)cn2)cs1)C(F)(F)F [Example 7, (S)-5-(azetidin-1-yl)-4-(4-cyclopropyl-1H-imidazol-1-yl)-N-(2-(4-(1,1,1-trifluoropropan-2-yl)-4H-1,2,4-triazol-3-yl)thiazol-4-yl)picolinamide] | 1.7 | – | –
CC1(O)CCN(c2cnc(C(=O)Nc3csc(-c4nncn4C4CC4)n3)cc2-n2cnc(C3CC3)c2)CC1 [Example 15, 4-(4-cyclopropylimidazol-1-yl)-N-[2-(4-cyclopropyl-1,2,4-triazol-3-yl)-1,3-thiazol-4-yl]-5-(4-hydroxy-4-methylpiperidin-1-yl)pyridine-2-carboxamide] | 2.5 | – | –
C[C@H](n1cnnc1-c1nc(NC(=O)c2cc(-n3cnc(C4CC4)c3)c(N3CC(C)(O)C3)cn2)cs1)C(F)(F)F [Example 4, (S)-4-(4-cyclopropyl-1H-imidazol-1-yl)-5-(3-hydroxy-3-methylazetidin-1-yl)-N-(2-(4-(1,1,1-trifluoropropan-2-yl)-4H-1,2,4-triazol-3-yl)thiazol-4-yl)picolinamide] | – | 1.69 | 5.21
C[C@H](n1cnnc1-c1nc(NC(=O)c2cc(-n3cnc(C4CC4)c3)c(N(C)C)cn2)cs1)C(F)(F)F [Example 5, (S)-4-(4-cyclopropyl-1H-imidazol-1-yl)-5-(dimethylamino)-N-(2-(4-(1,1,1-trifluoropropan-2-yl)-4H-1,2,4-triazol-3-yl)thiazol-4-yl)picolinamide] | – | 1.88 | 7.12
C[C@H](n1cnnc1-c1nc(NC(=O)c2cc(-n3cnc(C4CC4)c3)c(N3CCCC3)cn2)cs1)C(F)(F)F [Example 8, (S)-4-(4-cyclopropyl-1H-imidazol-1-yl)-5-(pyrrolidin-1-yl)-N-(2-(4-(1,1,1-trifluoropropan-2-yl)-4H-1,2,4-triazol-3-yl)thiazol-4-yl)picolinamide] | 2.2 | – | –
O=C(Nc1csc(-c2nncn2C2CC2)n1)c1cc(-n2cnc(C3CC3)c2)c(N2CCC(O)C2)cn1 (stereo not shown) [Example 10, 4-(4-cyclopropylimidazol-1-yl)-N-[2-(4-cyclopropyl-1,2,4-triazol-3-yl)-1,3-thiazol-4-yl]-5-(3-hydroxypyrrolidin-1-yl)pyridine-2-carboxamide] | 3 | – | –
O=C(Nc1csc(-c2nncn2C2CC2)n1)c1cc(-n2cnc(C3CC3)c2)c(N2CCOCC2)cn1 [Example 1, 4-(4-cyclopropyl-1H-imidazol-1-yl)-N-(2-(4-cyclopropyl-4H-1,2,4-triazol-3-yl)thiazol-4-yl)-5-morpholinopicolinamide] | – | 1.44 | 13.2
O=C(Nc1csc(-c2nncn2C2CC2)n1)c1cc(-n2cnc(C3CC3)c2)c(N2CCC2)cn1 [Example 6, 5-(azetidin-1-yl)-4-(4-cyclopropylimidazol-1-yl)-N-[2-(4-cyclopropyl-1,2,4-triazol-3-yl)-1,3-thiazol-4-yl]pyridine-2-carboxamide] | 2.4 | – | –

Next, values leading:

IC50 [1, 3] [nM] | IC50 [1, 4] [nM] | EC50 [2] [nM] | SMILES
1.9 | – | – | O=C(Nc1csc(-c2nncn2C2CC2)n1)c1cc(-n2cnc(C3CC3)c2)c(N2CCCC2)cn1 [Example 9, 4-(4-cyclopropylimidazol-1-yl)-N-[2-(4-cyclopropyl-1,2,4-triazol-3-yl)-1,3-thiazol-4-yl]-5-pyrrolidin-1-ylpyridine-2-carboxamide]
– | 2.62 | 6.74 | C[C@H](n1cnnc1-c1nc(NC(=O)c2cc(-n3cnc(C4CC4)c3)c(N3CCOCC3)cn2)cs1)C(F)(F)F [Example 3, (S)-4-(4-cyclopropyl-1H-imidazol-1-yl)-5-morpholino-N-(2-(4-(1,1,1-trifluoropropan-2-yl)-4H-1,2,4-triazol-3-yl)thiazol-4-yl)picolinamide]
2 | – | – | O=C(Nc1csc(-c2nncn2C2CC2)n1)c1cc(-n2cnc(C3CC3)c2)c(N2CCCCC2)cn1 [Example 12, 4-(4-cyclopropylimidazol-1-yl)-N-[2-(4-cyclopropyl-1,2,4-triazol-3-yl)-1,3-thiazol-4-yl]-5-piperidin-1-ylpyridine-2-carboxamide]
1.8 | – | – | C[C@H](n1cnnc1-c1nc(NC(=O)c2cc(-n3cnc(C4CC4)c3)c(N3CCC(C)(O)CC3)cn2)cs1)C(F)(F)F [Example 14, (S)-4-(4-cyclopropyl-1H-imidazol-1-yl)-5-(4-hydroxy-4-methylpiperidin-1-yl)-N-(2-(4-(1,1,1-trifluoropropan-2-yl)-4H-1,2,4-triazol-3-yl)thiazol-4-yl)picolinamide]
2.1 | – | – | C[C@H](n1cnnc1-c1nc(NC(=O)c2cc(-n3cnc(C4CC4)c3)c(N3CCN(C)CC3)cn2)cs1)C(F)(F)F [Example 16, (S)-4-(4-cyclopropyl-1H-imidazol-1-yl)-5-(4-methylpiperazin-1-yl)-N-(2-(4-(1,1,1-trifluoropropan-2-yl)-4H-1,2,4-triazol-3-yl)thiazol-4-yl)picolinamide]
3.1 | – | – | CN1CCN(c2cnc(C(=O)Nc3csc(-c4nncn4C4CC4)n3)cc2-n2cnc(C3CC3)c2)CC1 [Example 17, 4-(4-cyclopropylimidazol-1-yl)-N-[2-(4-cyclopropyl-1,2,4-triazol-3-yl)-1,3-thiazol-4-yl]-5-(4-methylpiperazin-1-yl)pyridine-2-carboxamide]
2.2 | – | – | C[C@H](n1cnnc1-c1nc(NC(=O)c2cc(-n3cnc(C4CC4)c3)c(N3CCC(O)C3)cn2)cs1)C(F)(F)F (stereo partly drawn) [Example 11, 4-(4-cyclopropyl-1H-imidazol-1-yl)-5-(3-hydroxypyrrolidin-1-yl)-N-(2-(4-((S)-1,1,1-trifluoropropan-2-yl)-4H-1,2,4-triazol-3-yl)thiazol-4-yl)picolinamide]
